From ChEMBL document CHEMBL3853303, “Nazumazoles D-F, Cyclic Pentapeptides That Inhibit Chymotrypsin, from the Marine Sponge Theonella swinhoei” (J Nat Prod, 2016) come the findings set out here.

The assay is described as follows: Inhibition of bovine alpha-chymotrypsin using Suc-Leu-Leu-Val-Tyr 4-methylcoumaryl-7-amide as substrate assessed as formation of MCA after 1 hr by fluorometric method. Further details: species or system Bos taurus.
As usually defined, the IC50 is the midpoint of a concentration-inhibition curve. Turning to `CCC[C@@H]1NC(=O)[C@@H]2C[C@H](C)CN2C(=O)[C@@H](NC=O)CNC(=O)[C@@H](CC)NC(=O)c2coc(n2)[C@H](C)NC(=O)C1=O`, the IC50 was found to be 2000 nM. In the case of `CCC[C@@H]1NC(=O)[C@@H]2C[C@H](C)CN2C(=O)[C@@H](NC=O)CNC(=O)[C@@H](CO)NC(=O)c2coc(n2)[C@H](C)NC(=O)C1=O`, the IC50 was 3000 nM. Consider `CC(C)C[C@@H]1NC(=O)[C@@H]2C[C@H](C)CN2C(=O)[C@@H](NC=O)CNC(=O)[C@@H](CO)NC(=O)c2coc(n2)[C@H](C)NC(=O)C1=O`, for which the IC50 was determined as 10000 nM.
